Six compounds from patent US11345702B1 (Myoforte Therapeutics, Inc., priority 2020, dated 2022) can be followed below.

The structures appear in SMILES notation.

The nature of series [1]: Liver microsome stability assay (RLM). In kind it is in vitro ADME. The following applies: rat liver microsomes. The procedure:
(§1) A microsomal mixture (microsomes and Kphos buffer) was prepared at a concentration of 1.428 mg/mL in 2 mL tubes. To this microsomal mixture 1.6 μL (1 mM) of test compound and positive control were spiked; from this mixture, 70 μL was transferred to 96 well plate and pre-incubated at 37° C. for 5 min. After pre-incubation, the zero minute time point reaction was stopped using 100 μL of ice-cold acetonitrile containing internal standard and […] (3.33 mM in Kphos buffer) was added. The 45 minute time point reaction was initiated by addition of 30 μL of NADPH (3.33 mM in Kphos buffer) and incubated at 37° C. for 15 and 45 min. Reactions without NADPH and buffer controls (minus NADPH) at 0, 15, and 45 minutes were also incubated to rule out non-NADPH metabolism or chemical instability in the incubation buffer. Incubation reactions were stopped with 100 μL of ice-cold acetonitrile containing internal standard. The plates were centrifuged at 4000 RPM for 15 min and 100 μL aliquots were submitted for analysis by LC-MS/MS. (Verapamil in human liver microsomes (HLM) and rat liver microsomes (RLM) was used as positive controls. Imipramine in mouse liver microsomes (MLM) was used as a positive control.) Samples were monitored for parent compound disappearance in MRM mode (multiple reaction monitoring) using LC-MS/MS. The peak area ratios of analyte versus internal standard were used to calculate the % remaining at the end of 45 minutes in the presence of NADPH.

The nature of series [2]: Liver microsome stability assay (HLM). In kind it is in vitro ADME. Conditions: human liver microsomes. Here is the method: as §1
Background: Liver microsomes are vesicles of endoplasmic reticulum, rich in cytochrome P450 enzymes.

Another series concerns the target 15-PGDH/HPGD (Homo sapiens (Human), UniProt P15428). Nature of the series: hPGDH inhibitor screening biochemical assay. Conditions: read-out: hPGDH: Average IC50. A digest of the protocol: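 Ten-point dose-response inhibition of 15-PGDH measured by fluorescence (340/485 nm) after 10 min at room temperature with PGE2 (15 μM) and NAD+ (0.25 mM), following 10 min enzyme (10 nM)–compound pre-incubation at 37 °C. Buffer: 50 mM Tris-HCl pH 7.5, 0.01% Tween 20. Percent inhibition relative to 1% DMSO; four-parameter IC50.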

Another series can be described thus: Solubility at pH 7.4. The format is physicochemical. Conditions: pH 7.4.
Series [3] in a line: Liver microsome stability assay (MLM). The format is in vitro ADME. The following applies: mouse liver microsomes. A digest of the protocol:
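Mouse, rat or human liver microsomes (mixture at 1.428 mg/mL) in potassium phosphate buffer, 37 °C, incubated with compound after NADPH addition; minus-NADPH controls included. Parent loss by LC-MS/MS (MRM) with internal standard; value is % remaining at 45 min with NADPH.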

A further series has as its system A549 cells. Nature of the series: A549 cell-based assay (PGE2 level). The procedure: 30,000 A549 cells per well were seeded into a tissue culture treated flat bottom 96 well plate, and incubated for 24 hours in a 37° C., […] incubator. After 24 hours of incubation, complete media were replaced with 100 μL of low serum (F12K+1% FBS) media and the plate was incubated for 24 hours in a 37° C., 5% CO2 incubator. After 24 hours of incubation, low serum media was replaced with 80 μL of complete medium (F12K+10% FBS) and 10 μL (10× concentration) of compounds were added and incubated at 37° C. for 30 minutes followed by stimulation of 10 μL (10× concentration) of IL-1b (Final concentration 0.25 ng/mL) overnight in a 37° C., […] incubator. After 24 hours of incubation, the supernatant was collected and the PGE2 level was detected by using Cisbio HTRF kit (Catalog #62P2APEH). Briefly, 5 μL of sample (100-Fold diluted) was dispensed into each sample well. 5 μL of each Prostaglandin E2 standard (Std 0-Std 7) was dispensed into each standard well. 2.5 μL of Prostaglandin E2-d2 working solution was added to all wells except negative controls and 2.5 μL of Anti-Prostaglandin E2-Eu3+ Cryptate working solution was added to all wells. […] After 5 hours of incubation, the plate sealer was removed and the plate was read on a HTRF® compatible reader. Delta F and PGE2 level were calculated as per kit instructions. % Fold change was calculated with respect to DMSO control wells.

Sequence of 15-PGDH/HPGD (P15428 whole entry): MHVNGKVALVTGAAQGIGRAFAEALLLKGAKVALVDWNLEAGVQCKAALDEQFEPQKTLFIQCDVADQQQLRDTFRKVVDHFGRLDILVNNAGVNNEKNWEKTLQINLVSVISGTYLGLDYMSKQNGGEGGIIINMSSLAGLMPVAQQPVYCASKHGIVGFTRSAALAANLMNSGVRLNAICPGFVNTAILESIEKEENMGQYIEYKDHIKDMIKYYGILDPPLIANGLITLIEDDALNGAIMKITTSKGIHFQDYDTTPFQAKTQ

For orientation: IC50 means the concentration at which inhibition is half-maximal. In the case of `COc1ccc(-n2cnc3cc(C(=O)N4CCCCC4)cnc32)cc1` [MF-PGDH-077], the “RLM + NADPH (% remaining at 45 min)” value in series [1] was determined as 84%. Further, the “HLM + NADPH (% remaining at 45 min)” value in series [2] is recorded as 97%. Further, at 15-PGDH/HPGD, the IC50 was below 100 nM. Besides, the “Solubility: Solubility at pH 7.4 (μM)” value in “Solubility at pH 7.4” was 160 μM.

Regarding `O=C(c1cnc2c(c1)ncn2-c1cccc(Cl)c1)N1CCCCC1` [MF-PGDH-020], in series [1], the “RLM + NADPH (% remaining at 45 min)” value was 23%. For the same compound, the “HLM + NADPH (% remaining at 45 min)” value in series [2] worked out at 87%. In addition, in series [3], the “MLM + NADPH (% remaining at 45 min)” value is given as 30%. Besides, the IC50 on 15-PGDH/HPGD is below 100 nM. Also, the “Solubility: Solubility at pH 7.4 (μM)” value in the series “Solubility at pH 7.4” amounted to 150 μM.

Take `COc1ccc(-n2cnc3cc(C(=O)N4CCC(F)(F)CC4)cnc32)cc1` [MF-PGDH-079]: the “RLM + NADPH (% remaining at 45 min)” value in series [1] is 87%. The “HLM + NADPH (% remaining at 45 min)” value in series [2] was found to be 100%. Moreover, the half-maximal inhibitory concentration (IC50) at 15-PGDH/HPGD was below 100 nM. In “Solubility at pH 7.4”, the “Solubility: Solubility at pH 7.4 (μM)” value came out at 140 μM.

Turning to `COc1ccc(-n2cnc3cc(C(=O)N4CCC(F)CC4)cnc32)cc1` [MF-PGDH-078], in series [1], the “RLM + NADPH (% remaining at 45 min)” value amounted to 89%. Moreover, the “HLM + NADPH (% remaining at 45 min)” value in series [2] was 96%. In addition, the IC50 on 15-PGDH/HPGD is below 100 nM. Moreover, the “Solubility: Solubility at pH 7.4 (μM)” value in the series “Solubility at pH 7.4” is given as 140 μM.

For the compound `N#Cc1ccc(-n2ccc3cc(C(=O)N4CCC(F)CC4)cnc32)cc1` [MF-DH-342], the “activity in the A549 cell-based assay (FIG. 1)” value with A549 cells is reported as “displayed activity”. On 15-PGDH/HPGD, the IC50 is below 100 nM.

As for `COc1ccc(-n2c(CC#N)nc3cc(C(=O)N4CCC(F)CC4)cnc32)cc1` [MF-DH-130], in series [1], the “RLM + NADPH (% remaining at 45 min)” value is listed as 74%. Also, in series [2], the “HLM + NADPH (% remaining at 45 min)” value is on record as 68%. Moreover, the IC50 at 15-PGDH/HPGD was 100 to 1000 nM.
